# Measured values taken from article PMC10876879, “Sustained silencing peanut allergy by xanthopurpurin is associated with suppression of peripheral and bone marrow IgE-producing B cell” (Frontiers in Immunology, 2024).
# Values joined by “and” are separate entries in the source; they are usually repeats but may differ in a detail not shown here. Equal values may be shown once.
# Key:
# [1] = test system: PN-allergic C3H/HeJ mice; assay: Peanut-allergic mouse models (Model #1 systemic i.p. sensitization, early treatment; Model #2 oral sensitization, late treatment) with oral PN challenge; type: in vivo; details: for Time after stopping treatment at which protection from anaphylaxis persisted: model #1
# [2] = test system: naïve C3H/HeJ mice; assay: Acute toxicity assay; type: in vivo
# Procedure: For acute toxicity analysis, naïve C3H/HeJ mice were fed with 4 mg of XPP per mouse, which is10 times of the daily dose. […] In the sub-chronic toxicity assay, naïve C3H/HeJ mice were fed with 5 times their daily therapeutic dose (2 mg/day) for 14 days. Control group mice (sham) were fed with water. Blood samples were collected at the end of each experiment. Blood urea nitrogen (BUN) and alanine aminotransferase (ALT) measurements for the evaluation of kidney and liver functions respectively and complete blood count (CBC) testing were performed by ALX laboratories, NY.
# [3] = test system: IL-4 promoter; assay: IL-4 promoter DNA methylation (CpG-393) in splenocytes of treated mice, bisulfite pyrosequencing; type: in vivo, C3H/HeJ mice; details: model #2, vs sham
# Excerpt: Genomic DNA was isolated from mouse splenocytes collected from orally sensitized mouse model#2 using Qiagen mini DNA/RNA extraction kit (Qiagen, Valencia, CA). Isolated DNA was bisulfite-modified using an Epitect plus DNA Bisulfite kit (Qiagen) following the manufacturer’s instructions. Bisulfite converted DNA was then amplified with the IL-4 primers listed below by PCR. The PCR products were subsequently purified and pyrosequenced using sequencing primers on a Pyromark Q24 system (Qiagen) as described previously ([38]). Primers for IL-4; Fwd: […]; Rev-Biotin-[…]. Sequencing (CpG -393) […].
# [4] = test system: U266 cells; assay: RT-PCR of candidate genes in XPP-treated U266 cells; type: cell-based, human
# Procedure: RT-PCR analysis of genes related to Cell cycle, B cell differentiation, and IgE production was performed by QuantStudio 5 real-time PCR system (Thermo Fisher, Waltham, MA). For each PCR reaction, 12.5 μL maxima SYBR Green/ROX qPCR Master Mix 2x (Thermo Fisher, Waltham, MA) was mixed with 1.8 μL of 0.3 μM target primers and 300 ng of template DNA to make the total volume as 25 μL. The PCR procedure was set as […] 25°C for 5 min, 42°C for 60 min and 70°C for 15 min. GAPDH was used as the housekeeping gene. The Delta Ct values for each gene were calculated by normalizing the Ct values with the housekeeping gene. The relative fold change in mRNA expression between different groups was calculated and expressed as 2^−ΔΔCT. The primer sequence used are shown in Supplementary Table 1 .
# [5] = test system: IgG production by ARH-77 cells; assay: IgG production by ARH-77 cells, IgG ELISA; type: cell-based, human; details: XPP 2.5, 5, 10, 20, and 40 μg/mL
# Procedure: ARH-77, a human IgG-producing myeloma cell line, was purchased from ATCC (American Type Culture Collection; Manassas, VA). The culture media contains RPMI 1640 medium supplemented, 10% FBS, 1 mM sodium pyruvate, 1×10^-5 M β-ME and 0.5% penicillin-streptomycin. Cells were cultured at 37°C under 5% CO2. […] After 3 days, supernatants were harvested and IgG levels were determined using an ELISA Kit (Mabtech Inc, OH).
# [6] = model #1, 7 weeks after stopping therapy
# [7] = orally sensitized mouse model #2
# [8] = 10x dose (4 mg/mouse) once, observed 14 days
smiles,measurement,setting,value
"O=C1c2ccccc2C(=O)c2c(O)cc(O)cc21 [XPP, xanthopurpurin]",Body temperatures after PN challenge,"[1]; both models, 30 minutes after challenge, p < 0.001 vs. Sham",normal body temperatures
same,Reduction of PN-specific IgE levels at challenge vs. sham,"[1]; both models, oral XPP 400 µg/day",> 80% and 75%
same,Plasma histamine levels after PN challenge,"[1]; both models, p < 0.001",essentially normal plasma histamine levels
same,Symptom scores following PN challenge,"[1]; both models, score 0-5, p <0.001 vs. Sham",0
same,Time after stopping treatment at which protection from anaphylaxis persisted,[1],5 weeks
same,"Body temperatures, sustained effect",[1]; [6],increased
same,"PN-specific IgE levels, sustained effect",[1]; [6],significantly reduced
same,"Symptom scores, sustained effect",[1]; [6],significantly reduced
same,Time after stopping treatment at which protection from anaphylaxis persisted,[1]; listed as xanthopurpurin,7 weeks
same,Fecal PN-specific IgA,[1]; [7],did not reduce
same,Serum PN-specific IgG1,[1]; [7],did not reduce
same,Serum PN-specific IgG2a,[1]; [7],did not reduce
same,"Deaths, abnormal behavior or diarrhea","[2]; 10 times (4 mg/day) once, observed daily for 14 days",No deaths and abnormal behavior or diarrhea were observed
same,Morbidity,[2]; [8],0.00%
same,Mortality,[2]; [8],0.00%
same,Percentages of CpG methylation for CpG-393 of IL-4 promoter,[3],showed an increase
same,CCND1 gene expression,"[4]; XPP 20 μg/mL, p < 0.001",significantly reduced
same,IL6R gene expression,"[4]; XPP 20 μg/mL, p < 0.001",significantly reduced
same,SCD1 gene expression,"[4]; XPP 20 μg/mL, p < 0.001",significantly reduced
same,DUSP4 gene expression,"[4]; XPP 20 μg/mL, p < 0.01",significantly increased
same,PTPRC gene expression,"[4]; XPP 20 μg/mL, p < 0.01",significantly increased
same,ETS1 gene expression,[4]; increasing XPP concentration,"upregulation trend with the increasing concentration of XPP, but no significant value was observed"
same,IgG production by ARH-77 cells,[5],didn’t show significant inhibition
